Key:
human calcium receptor = target: T1, human calcium receptor (Homo sapiens, UniProt P41180); experiment: Activity on calcium receptors: fluo-3 fluorescence in HEK293 cells transfected with human calcium receptor gene; type: cell-based; settings: HEK293 cells transfected with plasmid pHuPCaR4.0 (human calcium receptor gene), loaded with fluo-3; 1 mM CaCl2, 1 mM MgCl2
T1 construct: expressed in transfected cells; host or cells: HEK293
T1 sequence (P41180 20-1078): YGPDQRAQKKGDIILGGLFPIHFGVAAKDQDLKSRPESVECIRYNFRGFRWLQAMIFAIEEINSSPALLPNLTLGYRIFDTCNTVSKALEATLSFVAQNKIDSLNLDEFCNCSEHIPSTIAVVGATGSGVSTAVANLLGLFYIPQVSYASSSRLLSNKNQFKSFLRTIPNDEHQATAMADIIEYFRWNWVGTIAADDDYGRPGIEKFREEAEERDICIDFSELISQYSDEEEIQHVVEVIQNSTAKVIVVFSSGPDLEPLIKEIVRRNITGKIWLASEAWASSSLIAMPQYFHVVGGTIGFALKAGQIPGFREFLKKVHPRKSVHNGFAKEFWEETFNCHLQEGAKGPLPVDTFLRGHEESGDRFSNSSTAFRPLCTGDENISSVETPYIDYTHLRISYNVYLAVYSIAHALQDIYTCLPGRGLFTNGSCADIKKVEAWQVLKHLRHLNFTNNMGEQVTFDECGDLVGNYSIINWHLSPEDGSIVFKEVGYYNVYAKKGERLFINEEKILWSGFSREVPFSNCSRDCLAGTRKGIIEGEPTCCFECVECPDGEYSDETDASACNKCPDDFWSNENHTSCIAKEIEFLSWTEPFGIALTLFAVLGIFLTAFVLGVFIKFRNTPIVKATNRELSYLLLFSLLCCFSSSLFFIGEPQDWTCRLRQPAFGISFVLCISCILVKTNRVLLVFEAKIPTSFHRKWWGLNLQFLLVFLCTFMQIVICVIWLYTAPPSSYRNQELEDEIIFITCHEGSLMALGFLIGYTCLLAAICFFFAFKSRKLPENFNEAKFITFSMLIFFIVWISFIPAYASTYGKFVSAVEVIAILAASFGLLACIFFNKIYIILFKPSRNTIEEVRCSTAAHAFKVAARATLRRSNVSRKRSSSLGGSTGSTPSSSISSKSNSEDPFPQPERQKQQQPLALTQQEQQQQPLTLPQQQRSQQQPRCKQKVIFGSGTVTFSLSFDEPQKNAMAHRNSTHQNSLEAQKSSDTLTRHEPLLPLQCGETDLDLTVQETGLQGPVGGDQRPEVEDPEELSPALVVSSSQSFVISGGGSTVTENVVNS
Outline: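 HEK293 cells transfected with human calcium receptor plasmid, loaded 1 h at 37 °C with about 5 μM fluo-3/AM. Cells then rinsed into HEPES-buffered HBSS with 1 mM CaCl2 and 1 mM MgCl2. Fluorescence read at 485/540 nm after compound addition.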

normal male SD rats = experiment: Plasma Ca^2+ level of rats after single oral administration; type: in vivo; settings: rat, mean of six animals, vehicle 10% cyclodextrin (** 1% sodium-CMC); for Plasma Ca^2+ (mmol/l) 0 hr: 0 hr = before oral administration of 30 μmol/kg; for Plasma Ca^2+ (mmol/l) 1 hr: 1 hr after single oral dose 30 μmol/kg; for Plasma Ca^2+ (mmol/l) 2 hr: 2 hr after single oral dose 30 μmol/kg; for Plasma Ca^2+ (mmol/l) 4 hr: 4 hr after single oral dose 30 μmol/kg; for Plasma Ca^2+ (mmol/l) 8 hr: 8 hr after single oral dose 30 μmol/kg
Outline: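 Normal male SD rats (n=6/group) received a single oral dose of 30 μmol/kg in 10% cyclodextrin or, for some compounds, 1% sodium-CMC; vehicle controls received 2.5 ml/kg. Tail blood was drawn pre-dose and at 30 min and 1, 2, 4, 8 and 24 h for plasma Ca^2+ and serum PTH. PTH was compared with vehicle by Steel's test.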

SMILES	EC50 (human calcium receptor) [nM]	Plasma Ca^2+ (mmol/l) 0 hr (normal male SD rats) [mmol/L]	Plasma Ca^2+ (mmol/l) 1 hr (normal male SD rats) [mmol/L]	Plasma Ca^2+ (mmol/l) 2 hr (normal male SD rats) [mmol/L]	Plasma Ca^2+ (mmol/l) 4 hr (normal male SD rats) [mmol/L]	Plasma Ca^2+ (mmol/l) 8 hr (normal male SD rats) [mmol/L]	Plasma Ca^2+ (mmol/l) 24 hr (normal male SD rats; 24 hr after single oral dose 30 μmol/kg) [mmol/L]
C[C@@H](NCCC(=O)N(Cc1ccc(Cl)cc1)Cc1ccc(C(F)(F)F)cc1)c1cccc2ccccc12 [Compound K-2266, N1-(4-chlorobenzyl)-N1-[(4-trifluoromethyl)benzyl]-3-{[(1R)-1-(1-naphthyl)ethyl]amino}propanamide]	36	1.417	1.368	1.222	1.065	1.045	1.370
Cc1ccc(SC(C)CCCN[C@H](C)c2cccc3ccccc23)c(C)c1 (stereo partly drawn) [Compound K-2303]	350	1.415	1.255	1.165	1.020	1.032	
COc1ccc(CN(Cc2ccc(Cl)cc2)C(=O)CCN[C@H](C)c2cccc3ccccc23)cc1 [Compound K-2289, N1-(4-chlorobenzyl)-N1-(4-methoxybenzyl)-3-{[(1R)-1-(1-naphthyl)ethyl]amino}propanamide]	74		1.270	1.173	1.003	1.093	
